What all share (assay type): physicochemical
The nature of series [1]: Thermal stability test of crystal of compound (1) (change in content of compound (E-3) on heating). To be noted: for Content (Y) of compound (E-3) measured after test: after heating of the crystal at 70° C. for 192 hours; for Content (Y) of compound (E-3) measured after test / Content (X) of compound (E-3) measured before test: HPLC peak area ratio, 225 nm; for Content (X) of compound (E-3) measured before test: before heating; for Thermal stability of the crystal (conclusion in words) / [Y−X] (difference between Y and X, increase in content of compound (E-3)): heating at 70° C. for 192 hours. The procedure:
In the present specification, a “γ-crystal with good stability” is identified by the thermal stability test described later and is one for which [Y−X] (i.e. a difference between Y and X) is less than 0.040% when the content of the compound (E-3) with respect to the total amount of the crystal is expressed as X % and the content of the compound (E-3) as measured after heating of the crystal at 70° C. for 192 hours is expressed as Y %. The crystal structure of the indoline compound is determined using a powder X-ray diffractometer.
The thermal stability test is a test for evaluating a change in the content of the compound (E-3) in the γ-crystal of the compound (1) caused when the crystal is heated at 70° C. for 192 hours. The pre-test content X (%) of the compound (E-3) with respect to the total amount of the crystal and the post-heating content Y (%) of the compound (E-3) with respect to the total amount of the crystal are measured, and the amount of change is calculated by the formula Y−X and expressed as [Y−X]. The content of the compound (E-3) may be on a mass basis or a volume basis. To measure the content of the compound (E-3) with increased accuracy, the measurement may be performed using high-performance liquid chromatography (HPLC). When the content of the compound (E-3) is measured using HPLC, the content can be measured as a value obtained as follows: a peak area of a peak observed in a chromatogram and attributed to the compound (E-3) is divided by the sum of the peak areas of all the peaks.
Compound analysis was performed in the same manner as in the above examples of step A, except that the measurement wavelength and the mobile phase were changed as follows.
Measurement wavelength: 225 nm
Mobile phase and measurement method: 1.0 g of ammonium formate and water were mixed to a volume of 1000 mL, and then 0.53 mL of formic acid was added to adjust the pH of the solution to 3.7. The measurement was performed as the volume ratio between the solution and acetonitrile was varied from 4:1 to 1:1.
(§1) The content of the compound (E-3) was expressed as a value calculated as follows: a peak area of a peak observed in a chromatogram and attributed to the compound (E-3) was divided by the sum of peak areas of all peaks observed in the chromatogram.

Series [2] in a line: Photostability test of crystals of compound (1). To be noted: 4000-lux light at 25° C., relative humidity 60%, 336 hours. The procedure: as §1
(§2) An α-crystal, a β-crystal, and a γ-crystal were produced, and each of them was subjected to a photostability test and a crushing stability test under the following conditions.
Each crystal was left under irradiation of 4000-lux light at 25° C. and a relative humidity of 60% for 336 hours.

Series [3] in a line: Crushing stability test of crystals of compound (1) (crystal form after crushing). The note with it: crushed in a mortar with a pestle. The procedure: The γ-crystal of the compound (1) in the present specification may contain a solvent or the like in addition to the compound (1), as described in Patent Literature 3. In particular, “α-crystal”, “β-crystal”, and “γ-crystal” are each identified by a method described in Patent Literature 3 and, specifically, the identification is performed through measurement of powder X-ray diffraction.
Analysis equipment: Powder X-ray diffractometer, RINT-TTR III (manufactured by Rigaku Corporation)
as §2
Each crystal was put in a mortal and crushed with a pestle.

Molecules are shown by their SMILES. “Also recorded” adds a separate entry of the source.

Consider `C[C@H](Cc1cc2c(c(C(N)=O)c1)N(CCCO)CC2)NCCOc1ccccc1OCC(F)(F)F` [Comparative Example C1, (−)-1-(3-hydroxypropyl)-5-[(2R)-2-({2-[2-(2,2,2-trifluoroethoxy)phenoxy]ethyl}amino)propyl]-2,3-dihydro-1H-indole-7-carboxamide, reference compound], for which, in series [1], the “Content (Y) of compound (E-3) measured after test” value (from here on “Content (Y) of compound”) was 0.133%; the “Content (X) of compound (E-3) measured before test” value (from here on “Content (X) of compound”) is on record as 0.091%; the “Thermal stability of the crystal (conclusion in words)” value (from here on “Thermal stability of the crystal”) is recorded as “unstable”; the “[Y−X] (difference between Y and X, increase in content of compound (E-3))” value was 0.042%.

With `C[C@H](Cc1cc2c(c(C(N)=O)c1)N(CCCO)CC2)NCCOc1ccccc1OCC(F)(F)F` [Example C1, (−)-1-(3-hydroxypropyl)-5-[(2R)-2-({2-[2-(2,2,2-trifluoroethoxy)phenoxy]ethyl}amino)propyl]-2,3-dihydro-1H-indole-7-carboxamide], in series [1], the “Content (Y) of compound” value was determined as 0.044%; the “Content (X) of compound” value was 0.043%; the “Thermal stability of the crystal” value was “stable”; the “[Y−X] (difference between Y and X, increase in content of compound (E-3))” value worked out at 0.001%.

Turning to `C[C@H](Cc1cc2c(c(C(N)=O)c1)N(CCCO)CC2)NCCOc1ccccc1OCC(F)(F)F` [Example C2, (−)-1-(3-hydroxypropyl)-5-[(2R)-2-({2-[2-(2,2,2-trifluoroethoxy)phenoxy]ethyl}amino)propyl]-2,3-dihydro-1H-indole-7-carboxamide], in series [1], the “Content (Y) of compound” value is 0.088%; the “Content (X) of compound” value stood at 0.076%; the “Thermal stability of the crystal” value is “stable”; the “[Y−X] (difference between Y and X, increase in content of compound (E-3))” value was 0.012%.

As to `C[C@H](Cc1cc2c(c(C(N)=O)c1)N(CCCO)CC2)NCCOc1ccccc1OCC(F)(F)F` [Example C3, (−)-1-(3-hydroxypropyl)-5-[(2R)-2-({2-[2-(2,2,2-trifluoroethoxy)phenoxy]ethyl}amino)propyl]-2,3-dihydro-1H-indole-7-carboxamide], in series [1], the “Content (Y) of compound” value was 0.097%; the “Content (X) of compound” value is 0.071%; the “Thermal stability of the crystal” value was “stable”; the “[Y−X] (difference between Y and X, increase in content of compound (E-3))” value amounted to 0.026%.

With `C[C@H](Cc1cc2c(c(C(N)=O)c1)N(CCCO)CC2)NCCOc1ccccc1OCC(F)(F)F` [Example C4, (−)-1-(3-hydroxypropyl)-5-[(2R)-2-({2-[2-(2,2,2-trifluoroethoxy)phenoxy]ethyl}amino)propyl]-2,3-dihydro-1H-indole-7-carboxamide], in series [1], the “Content (Y) of compound” value stood at 0.091%; the “Content (X) of compound” value was 0.067%; the “Thermal stability of the crystal” value is given as “stable”; the “[Y−X] (difference between Y and X, increase in content of compound (E-3))” value came out at 0.024%.

`C[C@H](Cc1cc2c(c(C(N)=O)c1)N(CCCO)CC2)NCCOc1ccccc1OCC(F)(F)F` [α-crystal, (−)-1-(3-hydroxypropyl)-5-[(2R)-2-({2-[2-(2,2,2-trifluoroethoxy)phenoxy]ethyl}amino)propyl]-2,3-dihydro-1H-indole-7-carboxamide]: the “Stability to light (conclusion in words)” value in series [2] is given as “the most unstable”. In series [3], the “Result of crushing stability test (phase transition)” value (shortened to “Result of crushing stability test”) is given as “transformed into a γ-crystal; also recorded: the most unstable”.

In the case of `C[C@H](Cc1cc2c(c(C(N)=O)c1)N(CCCO)CC2)NCCOc1ccccc1OCC(F)(F)F` [β-crystal, (−)-1-(3-hydroxypropyl)-5-[(2R)-2-({2-[2-(2,2,2-trifluoroethoxy)phenoxy]ethyl}amino)propyl]-2,3-dihydro-1H-indole-7-carboxamide], the “Result of crushing stability test” value in series [3] is reported as “phase transition was not observed”.

For `C[C@H](Cc1cc2c(c(C(N)=O)c1)N(CCCO)CC2)NCCOc1ccccc1OCC(F)(F)F` [γ-crystal, (−)-1-(3-hydroxypropyl)-5-[(2R)-2-({2-[2-(2,2,2-trifluoroethoxy)phenoxy]ethyl}amino)propyl]-2,3-dihydro-1H-indole-7-carboxamide], the “Stability to light (conclusion in words)” value in series [2] is listed as “good stability to light”. In addition, the “Result of crushing stability test” value in series [3] was “phase transition was not observed; also recorded: does not undergo phase transition even when subjected to crushing”.

Values taken from patent US9932308B2, “Method for producing indoline compound” (UBE INDUSTRIES, LTD., priority 2014, dated 2018).
